Measured values: ChEMBL document CHEMBL1137116, “Synthesis and structure-activity relationships of 1,5-diazaanthraquinones as antitumour compounds” (Bioorg Med Chem Lett, 2004)

Test system: HT-29
Assay: Cytotoxic activity of compound against HT-29 (Human colon carcinoma) cell line
Type: functional, cell-based
Details: not given
In the case of `Cc1ccnc2c1C(=O)c1nccc(C)c1C2=O`, the IC50 is reported as 1000 nM. Work on `COc1cccc2c1C(=O)c1c(O)c3c(c(O)c1C2=O)C[C@@](O)(C(=O)CO)C[C@@H]3O[C@H]1C[C@H](N)[C@H](O)[C@H](C)O1` [DOXORUBICIN] yielded an IC50 of 90 nM. `CCc1c(C)cnc2c1C(=O)c1c(ncc(C)c1CC)C2=O` showed an IC50 of 8500 nM. `Cc1cnc2c(c1)C(=O)c1nccc(Cl)c1C2=O` gave an IC50 of 40 nM. With `Cc1ccnc2c1C(=O)c1c(C)ccnc1C2=O` the IC50 was 2100 nM. `Cc1ccnc2c1C(=O)c1nccc(N(C)C)c1C2=O` showed an IC50 of 930 nM. With `CCc1c(C)cnc2c1C(=O)c1ncc(C)c(CC)c1C2=O` the IC50 was 3400 nM. `O=C1c2cccnc2C(=O)c2cccnc21` gave an IC50 of 4800 nM. `O=C1c2cccnc2C(=O)c2ncccc21` gave an IC50 of 5700 nM. With `Cc1cnc2c(c1)C(=O)c1ncc(C)cc1C2=O` the IC50 was 420 nM. `Cc1ccnc2c1C(=O)c1nc3c(cc1C2=O)CCCC3` showed an IC50 of 18000 nM. In the case of `CCc1cnc2c(c1)C(=O)c1cc(CC)cnc1C2=O`, the IC50 is reported as 1880 nM. `O=C1c2nccc(-c3ccccc3[N+](=O)[O-])c2C(=O)c2nccc(Cl)c21` gave an IC50 of 270 nM. Compound `Cc1cc[n+](N(C)C)c2c1C(=O)c1nccc(Cl)c1C2=O` has an IC50 of 1930 nM. `Cc1ccnc2c1C(=O)c1nccc(Cl)c1C2=O` showed an IC50 of 1930 nM. `CCc1cnc2c(c1)C(=O)c1ncc(CC)cc1C2=O` showed an IC50 of 1880 nM. With `O=C1c2nccc(-c3ccccc3[N+](=O)[O-])c2C(=O)c2nccc(O)c21` the IC50 was 7200 nM. Compound `Cc1cnc2c(c1)C(=O)c1cc(C)cnc1C2=O` has an IC50 of 500 nM.

Test system: A549
Assay: Cytotoxic activity against A-549 (Human lung carcinoma) cell line
Type: functional, cell-based
Details: not given
Compound `Cc1ccnc2c1C(=O)c1nccc(C)c1C2=O` has an IC50 of 500 nM. Work on `COc1cccc2c1C(=O)c1c(O)c3c(c(O)c1C2=O)C[C@@](O)(C(=O)CO)C[C@@H]3O[C@H]1C[C@H](N)[C@H](O)[C@H](C)O1` [DOXORUBICIN] yielded an IC50 of 10 nM. `CCc1c(C)cnc2c1C(=O)c1c(ncc(C)c1CC)C2=O` gave an IC50 of 8500 nM. For `Cc1cnc2c(c1)C(=O)c1nccc(Cl)c1C2=O`, the IC50 was 30 nM. Compound `Cc1ccnc2c1C(=O)c1c(C)ccnc1C2=O` has an IC50 of 2100 nM. With `Cc1ccnc2c1C(=O)c1nccc(N(C)C)c1C2=O` the IC50 was 370 nM. Work on `CCc1c(C)cnc2c1C(=O)c1ncc(C)c(CC)c1C2=O` yielded an IC50 of 3400 nM. `O=C1c2cccnc2C(=O)c2cccnc21` showed an IC50 of 4800 nM. `O=C1c2cccnc2C(=O)c2ncccc21` showed an IC50 of 4800 nM. For `Cc1cnc2c(c1)C(=O)c1ncc(C)cc1C2=O`, the IC50 was 40 nM. In the case of `Cc1ccnc2c1C(=O)c1nc3c(cc1C2=O)CCCC3`, the IC50 is reported as 4490 nM. Compound `CCc1cnc2c(c1)C(=O)c1cc(CC)cnc1C2=O` has an IC50 of 450 nM. Work on `O=C1c2nccc(-c3ccccc3[N+](=O)[O-])c2C(=O)c2nccc(Cl)c21` yielded an IC50 of 30 nM. In the case of `Cc1cc[n+](N(C)C)c2c1C(=O)c1nccc(Cl)c1C2=O`, the IC50 is reported as 330 nM. `Cc1ccnc2c1C(=O)c1nccc(Cl)c1C2=O` showed an IC50 of 190 nM. `CCc1cnc2c(c1)C(=O)c1ncc(CC)cc1C2=O` showed an IC50 of 190 nM. In the case of `O=C1c2nccc(-c3ccccc3[N+](=O)[O-])c2C(=O)c2nccc(O)c21`, the IC50 is reported as 7200 nM. `Cc1cnc2c(c1)C(=O)c1cc(C)cnc1C2=O` showed an IC50 of 210 nM.

Test system: not listed separately
Assay: Cytotoxic activity of compound against MEL-28 (Human melanoma) cell line
Type: functional
Details: SK-MEL-28
For `Cc1ccnc2c1C(=O)c1nccc(C)c1C2=O`, the IC50 was 1000 nM. Work on `COc1cccc2c1C(=O)c1c(O)c3c(c(O)c1C2=O)C[C@@](O)(C(=O)CO)C[C@@H]3O[C@H]1C[C@H](N)[C@H](O)[C@H](C)O1` [DOXORUBICIN] yielded an IC50 of 30 nM. Compound `CCc1c(C)cnc2c1C(=O)c1c(ncc(C)c1CC)C2=O` has an IC50 of 8500 nM. For `Cc1cnc2c(c1)C(=O)c1nccc(Cl)c1C2=O`, the IC50 was 30 nM. `Cc1ccnc2c1C(=O)c1c(C)ccnc1C2=O` showed an IC50 of 2100 nM. Compound `Cc1ccnc2c1C(=O)c1nccc(N(C)C)c1C2=O` has an IC50 of 370 nM. Compound `CCc1c(C)cnc2c1C(=O)c1ncc(C)c(CC)c1C2=O` has an IC50 of 3400 nM. Work on `O=C1c2cccnc2C(=O)c2cccnc21` yielded an IC50 of 4800 nM. In the case of `O=C1c2cccnc2C(=O)c2ncccc21`, the IC50 is reported as 4800 nM. In the case of `Cc1cnc2c(c1)C(=O)c1ncc(C)cc1C2=O`, the IC50 is reported as 40 nM. In the case of `Cc1ccnc2c1C(=O)c1nc3c(cc1C2=O)CCCC3`, the IC50 is reported as 18000 nM. Compound `CCc1cnc2c(c1)C(=O)c1cc(CC)cnc1C2=O` has an IC50 of 790 nM. `O=C1c2nccc(-c3ccccc3[N+](=O)[O-])c2C(=O)c2nccc(Cl)c21` gave an IC50 of 30 nM. Work on `Cc1cc[n+](N(C)C)c2c1C(=O)c1nccc(Cl)c1C2=O` yielded an IC50 of 330 nM. `Cc1ccnc2c1C(=O)c1nccc(Cl)c1C2=O` showed an IC50 of 190 nM. With `CCc1cnc2c(c1)C(=O)c1ncc(CC)cc1C2=O` the IC50 was 380 nM. `O=C1c2nccc(-c3ccccc3[N+](=O)[O-])c2C(=O)c2nccc(O)c21` gave an IC50 of 7200 nM. Compound `Cc1cnc2c(c1)C(=O)c1cc(C)cnc1C2=O` has an IC50 of 210 nM.
